Consider 11 compounds from US7223759B2, “Antibacterial 3,5-diaminopiperidine-substituted aromatic and heteroaromatic compounds” (Anadys Pharmaceuticals, Inc., priority 2003, dated 2007).

One experiment concerns Escherichia coli (ATCC25922) or Staphylococcus aureus (ATCC25923). Kind of experiment: Antibacterial MIC, microdilution method in Mueller-Hinton medium. To be noted: Escherichia coli, 18 h, MIC in E. coli or S. aureus; two-fold serial dilutions 64 to 0.5 μg/ml in duplicate; 18 hours of incubation at 35° C.; read-out: Potency (MIC). The experiment is classed as cell-based. In a few lines: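 Read after 18 h incubation at 35° C, MIC is the lowest compound level that blocked growth. Compounds were tested in duplicate over 64–0.5 μg/ml two-fold dilutions using Mueller-Hinton microdilution per NCCLS standard.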
(In broth dilution the organism is exposed to a series of concentrations in liquid medium.)
The MIC is the lowest concentration that inhibits growth of the organism. Consider `Cc1cc(Nc2nc(N3C[C@H](N)C[C@H](N)C3)nc(N3C[C@H](N)C[C@H](N)C3)n2)ccc1NC(=O)c1ccc(O)cc1O` [N-[4-(2,4-dihydroxy-benzoylamino)-3-methyl-phenyl]-4,6-Bis-((3R,5S)-3,5-diamino-piperidin-1-yl)-[1,3,5]triazine-2-amine], for which the minimum inhibitory concentration (MIC) is less than 16 µg/mL. The same measure, in the same setting: to `Cl.O=C(Nc1ccc(Nc2nc(N3CCCCC3)nc(N3CCCCC3)n2)cc1O)c1c(Cl)cccc1Cl` [N-[4-(2,6-dichloro-benzoylamino)-3-hydroxy-phenyl]-4,6-Bis-((3R,5S)-3,5-diamine-piperidin-1-yl)-[1,3,5]triazine-2-amine] belongs less than 64 µg/mL; to `Cc1cc(NS(=O)(=O)c2ccc(Nc3nc(N4C[C@H](N)C[C@H](N)C4)nc(N4C[C@H](N)C[C@H](N)C4)n3)cc2)nc(C)n1.Cl` [N-[4-(2,6-dimethyl-pyrimidin-4-ylsulfamoyl)-phenyl]-4,6-Bis-((3R,5S)-3,5-diamino-piperidin-1-yl)-[1,3,5]triazine-2-amine], more than 64 µg/mL. For `Cl.O=C(Nc1cc(C(F)(F)F)ccc1Cl)c1ccc(Nc2nc(N3CCCCC3)nc(N3CCCCC3)n2)cc1O` [N-[4-(2-chloro-5-trifluoromethyl-phenylcarbamoyl)-3-hydroxy-phenyl]-4,6-Biss-((3R,5S)-3,5-diamino-piperidin-1-yl)-[1,3,5]triazine-2-amine], the MIC was less than 64 µg/mL. In the case of `Cl.O=C(Nc1ccccc1Cl)c1ccc(Nc2nc(N3CCCCC3)nc(N3CCCCC3)n2)cc1O` [N-[4-(2-choro-phenylcarbamoyl)-3-hydroxy-phenyl]-4,6-Bis-((3R,5S)-3,5-diamino-piperidin-1-yl)-[1,3,5]triazine-2-amine], the MIC is less than 64 µg/mL.

The same experiment, now with this note: Escherichia coli, 18 h, read-out: Potency (MIC).
Regarding `Cc1cc(NC(=O)c2ccc(O)cc2O)ccc1Nc1nc(N2C[C@H](N)C[C@H](N)C2)nc(N2C[C@H](N)C[C@H](N)C2)n1` [N-[4-(2,4-dihydroxy-benzoylamino)-2-methyl-phenyl]-4,6-Bis-((3R,5S)-3,5-diamino-piperidin-1-yl)-[1,3,5]triazine-2-amine], the minimum inhibitory concentration (MIC) is less than 64 µg/mL. `N[C@@H]1C[C@H](N)CN(c2nc(Nc3ccc(NC(=O)c4ccc(O)cc4O)c(O)c3)nc(N3C[C@H](N)C[C@H](N)C3)n2)C1` [N-[4-(2,4-dihydroxy-benzoylamino)-3-hydroxy-phenyl]-4,6-Bis-((3R,5S)-3,5-diamino-piperidin-1-yl)-[1,3,5]triazine-2-amine]: the MIC was less than 16 µg/mL. Take `N[C@@H]1C[C@H](N)CN(c2nc(Nc3ccc(NC(=O)c4ccc(O)cc4O)cc3)nc(N3C[C@H](N)C[C@H](N)C3)n2)C1` [N-[4-(2,4-dihydroxy-benzoylamino)-phenyl]-4,6-Bis-((3R,5S)-3,5-diamino-piperidin-1-yl)-[1,3,5]triazine-2-amine]: the minimal inhibitory concentration (MIC) is less than 16 µg/mL.

Turning to `COc1ccc(OC)c(NC(=O)c2ccc(Nc3nc(N4C[C@H](N)C[C@H](N)C4)nc(N4C[C@H](N)C[C@H](N)C4)n3)cc2O)c1` [N-[4-(2,5-dimethoxy-phenylcarbamoyl)-3-hydroxy-phenyl]-4,6-Bis-((3R,5S)-3,5-diamino-piperidin-1-yl)-[1,3,5]triazine-2-amine], the MIC was less than 16 µg/mL. Regarding `COc1cccc(OC)c1C(=O)Nc1ccc(Nc2nc(N3C[C@H](N)C[C@H](N)C3)nc(N3C[C@H](N)C[C@H](N)C3)n2)cc1O` [N-[4-(2,6-dimethoxy-benzoylamino)-3-hydroxy-phenyl]-4,6-Bis-((3R,5S)-3,5-diamino-piperidin-1-yl)-[1,3,5]triazine-2-amine], the MIC was less than 64 µg/mL. For `N[C@@H]1C[C@H](N)CN(c2nc(Nc3ccc(NC(=O)c4ccccc4Cl)c(O)c3)nc(N3C[C@H](N)C[C@H](N)C3)n2)C1` [N-[4-(2-chloro-benzoylamino)-3-hydroxy-phenyl]-4,6-Bis-((3R,5S)-3,5-diamino-piperidin-1-yl)-[1,3,5]triazine-2-amine], the MIC is less than 64 µg/mL.
